Measurements from US20130158098A1, “Alkenyl Substituted Cycloaliphatic Compounds as Chemical Inducers of Proximity” (priority 2010, published 2013).

Assays:
[1] = tested on: ERK1/2 phosphorylation (SOS-PYLcs and myr-ABIcs); assay: SOS activation: ABA-induced ERK phosphorylation by SOS localization; type: cell-based, human; conditions: cells expressing SOS-PYLcs and myr-ABIcs; 250 μM ABA
Method: Six-well plates of 293T cells containing 0.5×10^6 cells per well were transfected with 3 μg of total DNA using FuGENE HD (Roche). Cells were transfected with expression plasmids encoding myr-ABI, SOS-PYL, SOS-FKBP, myr-SOS, and an expression vector control, pUC19. ABA (250 μM) was added at 3, 6, 12, and 24 hours before harvesting the cells. Cells were lysed in 1× lysis buffer [50 mM Tris-HCl (pH 7.5), 300 mM NaCl, 1% NP-40, 0.1% SDS, 0.5% sodium deoxycholate, 20 mM NaF, 1 mM Na3VO4, 1 mM phenylmethylsulfonyl fluoride (PMSF), and 1× protease inhibitor mixture (Calbiochem)] for 20 min at 4° C. After centrifugation at 14,000 g for 15 min, proteins were separated on 4 to 12% bis-tris NuPAGE gels (Invitrogen) and transferred to polyvinylidene difluoride membranes. […] Infrared dye 800 and 680 anti-rabbit or anti-mouse secondary antibodies were incubated at room temperature for 1 hour in 10% BSA-PBST and detected with a LI-COR/Odyssey scanner. […]

[2] = ABA stability in fetal bovine serum (luciferase biofunctional readout); type: in vitro ADME; conditions: 37° C.
Method: FIG. 3C provides the results of a stability test of ABA in cell culture conditions. CHO cells were pre-transfected with the activation and reporter DNA constructs for 24 hours. 100 μM ABA was then added to the culture and cells were assayed for luciferase activity after 10 hours. During the 10-hour incubation, the cell culture media were replaced with media containing freshly added ABA every 1, 2.5, 5 hour or no replacement. FIG. 4A illustrates the results of an experiment in which human serum pre-incubated ABA was used to induce luciferase transcription. ABA was incubated with pure non-heat inactivated human serum at 37° C. for indicated time period. ABA containing serum was then added to the CHO cell culture to a final 100 μM ABA concentration for 25 hours and cells were assayed for luciferase activity. The cells were pre-transfected with the activation and reporter DNA constructs for 24 hours. […]
In plants, ABA had been reported to be unstable due to active enzymatic degradation (Cutler, A. J. and Krochko, J. E. (1999) Formation and breakdown of ABA. Trends Plant Sci. 4, 472-478). […] The activity of residual ABA in the serum was measured by its ability to induce the transcriptional activation of the luciferase reporter in cells expressing the ABA-activator cassette. […] Using this assay, the bioavailability in mice was evaluated. […]

CC1=CC(=O)CC(C)(C)C1(O)/C=C/C(C)=C/C(=O)O (stereo not drawn) [ABA, abscisic acid]
phosphorylation of ERK [1]: induced the phosphorylation of ERK
reduction in ability to induce transcription of luciferase ([2]; pure fetal bovine serum, up to 48 hours): no significant reduction
stability in fetal calf serum ([2]; pure heat inactivated fetal bovine serum): stable
